Measured values: PubChem BioAssay (NCI)
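Each compound was tested at five concentrations against cells in 96-well plates for 48 hours. At the TGI there is no net growth.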

Legend:
Experiment in all cases: NCI anticancer screen, dose series, 48 h
[1] = tested on: NCI/ADR-RES ovarian
[2] = tested on: HT29 colon
[3] = tested on: SK-MEL-5 melanoma
[4] = tested on: SK-OV-3 ovarian
[5] = tested on: UACC-62 melanoma
[6] = tested on: OVCAR-8 ovarian
[7] = tested on: SF-295 CNS
[8] = tested on: NCI-H460 lung
[9] = tested on: NCI-H226 lung
[10] = tested on: SF-539 CNS
[11] = tested on: EKVX NSCLC
[12] = tested on: MDA-MB-435
[13] = tested on: ACHN renal
[14] = tested on: A549 NSCLC
[15] = tested on: OVCAR-3 ovarian
[16] = tested on: SR leukemia
[17] = tested on: SW-620 colon
[18] = tested on: SNB-19 CNS
[19] = tested on: KM12 colon
[20] = tested on: HCT-116 colon
[21] = tested on: IGROV1 ovarian
[22] = tested on: HOP-62 NSCLC
[23] = tested on: T-47D breast
[24] = tested on: CAKI-1 renal
[25] = tested on: M14 melanoma
[26] = tested on: RPMI-8226 leukemia
[27] = tested on: A498 renal
[28] = tested on: UO-31 renal
[29] = tested on: U251 CNS
[30] = tested on: MDA-MB-231 breast
[31] = tested on: NCI-H522 lung
[32] = tested on: BT-549 breast
[33] = tested on: COLO 205 colon
[34] = tested on: RXF 393 renal
[35] = tested on: SF-268 CNS
[36] = tested on: HOP-92 NSCLC
[37] = tested on: SK-MEL-28 melanoma
[38] = tested on: MALME-3M melanoma
[39] = tested on: K-562 leukemia
[40] = tested on: DU-145 prostate
[41] = tested on: HS 578T breast
[42] = tested on: LOX IMVI melanoma
[43] = tested on: HCT-15 colon
[44] = tested on: HL-60(TB) leukemia
[45] = tested on: OVCAR-5 ovarian
[46] = tested on: MOLT-4 leukemia
[47] = tested on: CCRF-CEM leukemia
[48] = tested on: SNB-75 CNS
[49] = tested on: SK-MEL-2 melanoma
[50] = tested on: MDA-N
[51] = tested on: SN12C renal
[52] = tested on: PC-3 prostate
[53] = tested on: TK-10 renal
[54] = tested on: MCF7 breast
[55] = tested on: 786-0 renal
[56] = tested on: OVCAR-4 ovarian
[57] = tested on: NCI-H23 lung
[58] = tested on: UACC-257 melanoma
[59] = tested on: HCC-2998 colon

CCCCCCOP(=O)(OCCCCCC)C(NC(=O)OCC)(C(F)(F)F)C(F)(F)F
TGI [1]: > 100 µM
TGI [2]: > 100 µM
TGI [3]: 44.1 µM
TGI [4]: > 100 µM
TGI [5]: > 100 µM
TGI [6]: > 100 µM
TGI [7]: > 100 µM
TGI [8]: > 100 µM
TGI [9]: 66.2 µM
TGI [10]: > 100 µM
TGI [11]: > 100 µM
TGI [12]: > 100 µM
TGI [13]: > 100 µM
TGI [14]: > 100 µM
TGI [15]: > 100 µM
TGI [16]: > 100 µM
TGI [17]: > 100 µM
TGI [18]: > 100 µM
TGI [19]: > 100 µM
TGI [20]: 90.2 µM
TGI [21]: > 100 µM
TGI [22]: > 100 µM
TGI [23]: > 100 µM
TGI [24]: > 100 µM
TGI [25]: > 100 µM
TGI [26]: > 100 µM
TGI [27]: > 100 µM
TGI [28]: 72.2 µM
TGI [29]: > 100 µM
TGI [30]: 56.6 µM
TGI [31]: 52.6 µM
TGI [32]: 50.1 µM
TGI [33]: 32.3 µM
TGI [34]: 76.9 µM
TGI [35]: > 100 µM
TGI [36]: 93.4 µM
TGI [37]: > 100 µM
TGI [38]: > 100 µM
TGI [39]: > 100 µM
TGI [40]: > 100 µM
TGI [41]: > 100 µM
TGI [42]: 56.1 µM
TGI [43]: > 100 µM
TGI [44]: > 100 µM
TGI [45]: > 100 µM
TGI [46]: > 100 µM
TGI [47]: > 100 µM
TGI [48]: > 100 µM
TGI [49]: 72.2 µM
TGI [50]: > 100 µM
TGI [51]: > 100 µM
TGI [52]: > 100 µM
TGI [53]: > 100 µM
TGI [54]: > 100 µM

O=C(O)c1cccc(N=Nc2c(S(=O)(=O)O)ccc3c2C(=O)c2ccccc2C3=O)c1O
TGI [1]: > 100 µM
TGI [2]: > 100 µM
TGI [3]: > 100 µM
TGI [4]: > 100 µM
TGI [5]: > 100 µM
TGI [6]: > 100 µM
TGI [7]: > 100 µM
TGI [8]: > 100 µM
TGI [9]: > 100 µM
TGI [10]: > 100 µM
TGI [11]: > 100 µM
TGI [12]: > 100 µM
TGI [13]: > 100 µM
TGI [14]: > 100 µM
TGI [15]: > 100 µM
TGI [16]: > 100 µM
TGI [17]: > 100 µM
TGI [18]: > 100 µM
TGI [19]: > 100 µM
TGI [55]: > 100 µM
TGI [20]: > 100 µM
TGI [21]: > 100 µM
TGI [22]: > 100 µM
TGI [23]: > 100 µM
TGI [24]: > 100 µM
TGI [25]: > 100 µM
TGI [56]: > 100 µM
TGI [26]: > 100 µM
TGI [27]: > 100 µM
TGI [28]: > 100 µM
TGI [57]: > 100 µM
TGI [29]: > 100 µM
TGI [30]: > 100 µM
TGI [31]: > 100 µM
TGI [32]: > 100 µM
TGI [33]: > 100 µM
TGI [34]: > 100 µM
TGI [35]: > 100 µM
TGI [36]: > 100 µM
TGI [37]: > 100 µM
TGI [38]: > 100 µM
TGI [39]: > 100 µM
TGI [40]: > 100 µM
TGI [41]: > 100 µM
TGI [42]: > 100 µM
TGI [43]: > 100 µM
TGI [44]: > 100 µM
TGI [45]: > 100 µM
TGI [46]: > 100 µM
TGI [47]: > 100 µM
TGI [48]: > 100 µM
TGI [49]: > 100 µM
TGI [58]: > 100 µM
TGI [50]: > 100 µM
TGI [51]: > 100 µM
TGI [52]: > 100 µM
TGI [53]: > 100 µM
TGI [54]: > 100 µM

Cc1cc(C)nc(SC(C)C(=O)N/N=C/c2ccc(OCc3ccccc3)cc2)n1 (stereo unspecified)
TGI [1]: > 100 µM
TGI [2]: > 100 µM
TGI [3]: 20.5 µM
TGI [4]: > 100 µM
TGI [5]: 92.5 µM
TGI [6]: > 100 µM
TGI [7]: > 100 µM
TGI [8]: > 100 µM
TGI [9]: 93.5 µM
TGI [10]: > 100 µM
TGI [11]: > 100 µM
TGI [12]: > 100 µM
TGI [13]: > 100 µM
TGI [14]: > 100 µM
TGI [15]: > 100 µM
TGI [16]: 38.1 µM
TGI [17]: > 100 µM
TGI [18]: > 100 µM
TGI [19]: > 100 µM
TGI [55]: > 100 µM
TGI [20]: > 100 µM
TGI [21]: > 100 µM
TGI [22]: > 100 µM
TGI [23]: 63.8 µM
TGI [24]: > 100 µM
TGI [25]: > 100 µM
TGI [56]: > 100 µM
TGI [26]: 41.9 µM
TGI [27]: > 100 µM
TGI [28]: > 100 µM
TGI [57]: > 100 µM
TGI [29]: > 100 µM
TGI [30]: 65 µM
TGI [31]: > 100 µM
TGI [32]: > 100 µM
TGI [33]: 91.6 µM
TGI [34]: 66.6 µM
TGI [35]: > 100 µM
TGI [36]: > 100 µM
TGI [37]: > 100 µM
TGI [38]: > 100 µM
TGI [39]: > 100 µM
TGI [40]: > 100 µM
TGI [41]: > 100 µM
TGI [42]: > 100 µM
TGI [43]: > 100 µM
TGI [59]: > 100 µM
TGI [44]: 38.3 µM
TGI [45]: > 100 µM
TGI [46]: 86.1 µM
TGI [47]: > 100 µM
TGI [48]: > 100 µM
TGI [49]: 46.1 µM
TGI [58]: 37.9 µM
TGI [50]: > 100 µM
TGI [51]: > 100 µM
TGI [52]: 58.7 µM
TGI [53]: > 100 µM
TGI [54]: 90.5 µM
